Patent publication US20230407365A1, “DIAGNOSTIC TOOL FOR SCREENING THE IMPACT OF PRODUCT INGREDIENTS FOR UROGENITAL MICROBIOMES THERAPIES” (priority 2022, published 2023)

Experiments:
E. coli = assay: Quantitative analysis of actives for cannabinoids, culture growth by OD 600 nm (FIG. 18); format: cell-based; conditions: aerobic conditions; compared with No treatment Ctrl
Method: FIGS. 17A, 17B and 18 show the results of quantitative analysis of actives for cannabinoids for Lactobacillus crispatus, Lactobacillus gasseri and E. coli. Each sample is treated with a CBD distillate, THC distillate, and De Man, Rogosa and Sharpe (MRS) agar plates as indicated on chart. Additionally, a CBD isolate of the samples is also treated.
The treatment results are measured by OD 600 nm 1715 of one embodiment.

L. crispatus [1] = assay: L. crispatus in anaerobic conditions at 37° C., OD 600 nm (FIG. 19); format: cell-based
Method: 1910. […] Confirmation as lactobacilli was confirmed by qPCR. The treatment results are measured by OD 600 nm 1715 of one embodiment.

L. gasseri [2] = assay: L. gasseri in anaerobic conditions at 37° C., OD 600 nm (FIG. 20); format: cell-based
Method: 2010. […] Confirmation as lactobacilli was confirmed by qPCR. The treatment results are measured by OD 600 nm 1715 of one embodiment.

Candida albicans = assay: CBD effects on C. albicans, normalized optical density (FIG. 16A); format: cell-based; conditions: anaerobically cultured Candida albicans
Staphylococcus aureus = conditions: reported; cited from earlier work
Streptococcus pneumoniae = conditions: reported; cited from earlier work
L. crispatus [3] = assay: Inhibition results, OD 600 nm (FIG. 21); format: cell-based; conditions: MRS broth
Method: (§1) Treatments included Product R 2150, Erythromycin 2152, No trt 2154, and Ctrl 2156. […] A drop in pH was expected and observed. Follow up treatments should include a positive control using a gram-positive antibiotic, e.g erythromycin, vancomycin or tetracycline, to show inhibition of the lactobacilli strains L. gasseri 2130 and L. crispatus 2140. The treatment results are measured by OD 600 nm 1715 of one embodiment.

L. gasseri [4] = assay: Inhibition results, OD 600 nm (FIG. 21); format: cell-based; conditions: MRS broth
Method: as §1

C=C(C)[C@@H]1CCC(C)=C[C@H]1c1c(O)cc(CCCCC)cc1O [CBD isolate, cannabidiol]
treatment results measured by OD 600 nm over treatment exposure times (growth inhibition) (E. coli): relatively similar results | inhibition of growth (OD 600 nm) (L. crispatus [1]): lack of inhibition | inhibition of growth (OD 600 nm) (L. gasseri [2]): lack of inhibition

C=C(C)[C@@H]1CCC(C)=C[C@H]1c1c(O)cc(CCCCC)cc1O [CBD, cannabidiol]
CBD effects on C. albicans (Normalized Optical Density over time) (Candida albicans): positive result | inhibitory levels (Staphylococcus aureus): low micromolar range | inhibitory levels (Streptococcus pneumoniae): low micromolar range

CC[C@H]1OC(=O)[C@H](C)[C@@H](O[C@H]2C[C@@](C)(OC)[C@@H](O)[C@H](C)O2)[C@H](C)[C@@H](O[C@@H]2O[C@H](C)C[C@H](N(C)C)[C@H]2O)[C@](C)(O)C[C@@H](C)C(=O)[C@H](C)[C@@H](O)[C@]1(C)O [Erythromycin]
inhibition of growth (OD 600 nm) (L. crispatus [3]): no observed inhibition of growth | inhibition of growth (OD 600 nm) (L. gasseri [4]): no observed inhibition of growth
